# Data from patent publication EP0741749B1, “MERCURY BINDING POLYPEPTIDES AND N[…] THEREFOR” (priority 1994, dated 1995).
# System: binding of antibody secreted by hybridoma designated as 1F10 to immobilized glutathione-mercuric ion
# Experiment: Competitive inhibition ELISA: inhibition of antibody binding by metal ions
# Conditions: culture fluid of 1F10; at the highest concentration (final range 10^-1 M to 10^-6 M); 100000 µM
# Protocol: Various methods were used to confirm that the antibodies secreted by hybridomas 4A10 and 1F10 were specific to mercuric ions. If the antibody being secreted by these hybridomas were specific, it should be possible to inhibit binding of the antibody to glutathione-mercuric ions by incubation in the presence of various concentrations of mercuric chloride. This competitive inhibition assay was conducted with antibody-containing culture fluids from the parental hybridomas 4A10 and 1F10.
# Metal ions at the indicated concentrations were incubated with culture fluid from the monoclonal antibody in an enzyme-linked immunosorbent assay ("ELISA") plate. The absorbance at 405 nm was determined for each sample, and the percent inhibition of each metal ion concentration was determined by the following formula: Percent inhibition=(A405 of inhibitor - A405 of neg. control)/(A405 of pos. control - A405 of neg. control) [formula]
# Various other metals were assayed for inhibition of binding of the monoclonal antibodies to mercuric ion. […] The absorbance at 405 nm was determined for each sample, and the percent inhibition of each metal ion concentration was determined by the same formula used for Figure 1. […]
# The negative control measured the binding of a dinitrophenol specific antibody to the antigen mentioned above in the presence of the corresponding metal ions. […]
compound,measurement,value
[Cl-].[Cl-].[Mg+2] [magnesium chloride],Percent inhibition,~50%
